Patent US20240197709A1, “POTENTIATING THE TUMOR-SELECTIVE EFFECTS OF NQO1-BIOACTIVATABLE AGENT BY USE OF CMET INHIBITOR” (The Trustees of Indiana University, priority 2022, published 2024)

Legend:
Capan2 shMET = test: long-term survival (DNA assay), Capan2 shSCR versus shMET; format: cell-based
Description: FIG. 1-1R. Graph showing relative long-term survival in isogenic Capan2 shSCR versus shMET cell lines using the DNA assay.
Dicoumarol (DIC) is a well-established NQO1 inhibitor (Asher, et al., Biochemistry 2006, 45(20), 6372-8; Motea, et al., Clin Cancer Res 2019, 25(8), 2601-2609; Huang, et al., Cancer Cell 2016, 30(6), 940-952).

[1] = test system: 53BP1 foci (DSBs) in A549 NSCLC; test: 53BP1 foci formation, A549; format: cell-based; conditions: A549, sub-lethal β-lap 3 μM for 2 h, monitored 24 h
Experimental: FIG. 3D. Graphical representation of average 53BP1 foci formation per nucleus at indicated treatment conditions: criz (1 μM), β-lap (3 μM), and DIC separately or in combination.
FIG. 3E Graph showing quantification of DSB formation (% cells with ≥5 53BP1 foci) following exposure of A549 shSCR vs shMET cells to indicated agents for 2 h (in red arrow), washed out and monitored up to 24 h to determine DSB repair kinetics.

A549 shMET = test: migration and invasion, A549 shSCR versus shMET; format: cell-based; conditions: β-lap 3 μM 2 h, p<0.001
Experimental: FIG. 4H. Representative images of A549 shSCR versus shMET migration at 16 h following treatments with DMSO-treated control and β-Lap (3 μM) for 2 h. Scale bars, 50 μm;
FIG. 4I. Bar graph showing quantification of cell migration expressed as a percent of control (vehicle). Quantitative data were shown as the mean±SEM. **** p<0.0001, ** p<0.01, *p<0.05, ns=not significant.
FIG. 4J. Representative images of A549 shSCR versus shMET invasion using a matrigel-coated transwell system at 16 h following treatments with DMSO-treated control and β-Lap (3 μM) for 2 h. Scale bars, 50 μm;
FIG. 4K. Bar graph showing quantification of cell invasion expressed as a percent of control (vehicle). Quantitative data were shown as the mean±SEM. **** p<0.0001, ** p<0.01, *p<0.05, ns=not significant.
FIG. 4-1B. Bar graph illustrating percentage wound closure at indicated time points in A549 shSCR versus shMET treated with vehicle control or non-lethal β-lap for 2 h. Two-way ANOVA was used for statistical analyses; * p<0.05.
Overexpression of cMET in many cancers, including NSCLC and PDAC, is known to enhance cancer cell mobility, migration, and invasion (Spina, et al., Biomedicines 2015, 3(1), 71-88). […]

[2] = test system: Capan2-mCherry microtumor; test: 3D spheroid co-culture, tumor cells; format: cell-based; conditions: 3D co-culture with NIH3T3-GFP; crizotinib 2 μM, β-lap 2 μM or 4 μM
Experimental: FIG. 5D. Top Inset: Representative brightfield, green (NIH3T3-GFP), red (Capan2-mCherry), and merged images of 3D spheroid co-culture of Capan2-mCherry (cancer cells) and NIH3T3-GFP (normal cells). 3D co-cultures were exposed to specified treatment conditions and imaged at indicated times to monitor drug response. Scale bar=250 μm. Untreated NIH3T3-GFP 3D spheroid culture by itself (imaged at indicated times) was added for reference.
FIG. 5E. Bar graph of Capan2-mCherry 3D spheroid microtumor growth at specified treatment conditions over time. Asterisk (*) indicates synergistic response in the combination treatment compared to the corresponding individual treatments alone.
Next, we investigated the tumor-selectivity and efficacy of our combination treatment strategy using 3D co-culture spheroids of Capan2 PDAC (permanently labelled with mCherry) and NIH3T3 mouse embryonic fibroblast cells (permanently labelled with GFP) to mimic physiological cell-cell and cell-environment interactions during treatment. […] These are consistent with patient data comparing associated normal tissues versus tumors in pancreas (FIGS. 1-1B, 1-1G) and lungs (FIGS. 1A, 1-1B, 1-1H). Using confocal fluorescent microscopy, we noted that NIH3T3-GFP fibroblast cells were surrounding the Capan2-mCherry PDAC cells in the 3D spheroid co-culture (FIG. 5D).

[3] = test system: A549 NSCLC with transient MET knockdown (siMET); test: long-term survival, A549 transient MET knockdown; conditions: A549, two different siRNAs
Experimental: Graph showing relative long-term survival studies in A549 NSCLC with transient MET knockdown (siMET) compared to siSCR control. β-lap was added±DIC (50 μM) for 2 h after RNAi transfection (48 h) with two different siRNA sequences.
Next, we investigated whether loss of cMET activity arising from genetic depletion of MET expression could enhance the therapeutic effect of β-lap at lower concentrations.

A549 NSCLC cells = test: long-term cell survival assay, A549; format: cell-based; conditions: sub-lethal crizotinib (2 μM) 2 h pre-treatment, then criz ± β-lap 2 h, ~7 days, DER >1 = synergistic
Experimental: FIG. 1B. […] LC50 values were calculated from long-term cell survival graphs using GraphPad PRISM; ND denotes Not Determined even at the highest concentration presented. All error bars represent the mean±SEM. **** p<0.0001, *** p<0.001, ** p<0.01, *p<0.05.
FIG. 1C. […] LC50 values were calculated from long-term cell survival graphs using GraphPad PRISM; ND denotes Not Determined even at the highest concentration presented. All error bars represent the mean±SEM. **** p<0.0001, *** p<0.001, ** p<0.01, *p<0.05.

[4] = test system: MIAPaCa2 NQO1−/− PDAC cell line; test: long-term survival, MIAPaCa2 NQO1 knock out; format: cell-based; conditions: β-lap alone
Description: Graph showing relative long-term survival plot of isogenic MIAPaCa2 NQO1+/+ versus MIAPaCa2 NQO1−/−PDAC cell lines treated with varying concentrations of β-lap alone.

SMILES: CC1(C)CCC2=C(O1)c1ccccc1C(=O)C2=O [β-lap, β-Lapachone]
- sensitivity to β-lap after stable knockdown of cMET (Capan2 shMET): enhanced Capan2 sensitivity
- DSB formation and repair [1]: induced formation of DSBs that were easily repaired
- cell invasion (A549 shMET): significantly reduces
- cell migration (A549 shMET): significantly reduces
- Capan2-mCherry microtumor growth [2]: very little effect on tumor growth
- sensitivity to β-lap compared to siSCR control [3]: sensitization
- DERLC50 (dose-enhancement ratio) of β-lap (A549 NSCLC cells): 6.6
- sensitivity after knocking out NQO1 [4]: more resistant
